Results published in US12384797B2, “Thioeno[3,2-b] pyridin-7-amine compounds for treating familial dysautonomia” (PTC THERAPEUTICS, INC., priority 2019, dated 2025).

Test system: Elongator complex protein 1 (ELP1, also referred to as IKBKAP)
Experiment: IKBKAP-HTRF assay (IKBKAP protein in lysates of FD patient-derived fibroblasts)
Format: cell-based, human
Conditions: 48 hours incubation, 7-point concentration curve
How it was run: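 FD patient-derived fibroblasts (10,000/well) were treated 48 h at 37 °C with a 7-point, 3.16-fold compound series in triplicate, then lysed. IKBKAP was read by sandwich HTRF (donor/acceptor anti-IKAP antibodies, overnight at 4 °C, 665/620 nm). MFI is ΔF over vehicle ΔF; EC2x is the concentration giving twice the vehicle IKBKAP level.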

Cc1c(C[C@@H](N)CC#N)sc2c(NCc3ccco3)cc(Cl)nc12 [Compound 111, (3S)-3-amino-4-(5-chloro-7-{[(furan-2-yl)methyl]amino}-3-methylthieno[3,2-b]pyridin-2-yl)butanenitrile]
EC2x for IKBKAP protein expression (concentration producing two times the amount of IKBKAP protein vs DMSO vehicle control): **** (between >0.005 μM and ≤0.02 μM is indicated by four stars (****)) | MFI (maximum fold increase in IKBKAP protein abundance relative to the vehicle control): ***** (>4.9 is indicated by five stars (*****))

C[C@H](N)Cc1sc2c(NCc3cccs3)cc(C#N)nc2c1Cl [Compound 112, 2-[(2S)-2-aminopropyl]-3-chloro-7-{[(thiophen-2-yl)methyl]amino}thieno[3,2-b]pyridine-5-carbonitrile]
EC2x for IKBKAP protein expression (concentration producing two times the amount of IKBKAP protein vs DMSO vehicle control): ***** (≤0.005 μM is indicated by five stars (*****)) | MFI (maximum fold increase in IKBKAP protein abundance relative to the vehicle control): ***** (>4.9 is indicated by five stars (*****))

CS(=O)(=O)C[C@H](N)Cc1sc2c(NCc3ccco3)cc(Cl)nc2c1Cl [Compound 113, 2-[(2R)-2-amino-3-(methanesulfonyl)propyl]-3,5-dichloro-N-[(furan-2-yl)methyl]thieno[3,2-b]pyridin-7-amine]
EC2x for IKBKAP protein expression (concentration producing two times the amount of IKBKAP protein vs DMSO vehicle control): **** (between >0.005 μM and ≤0.02 μM is indicated by four stars (****)) | MFI (maximum fold increase in IKBKAP protein abundance relative to the vehicle control): ***** (>4.9 is indicated by five stars (*****))

CSC[C@H](N)Cc1sc2c(NCc3ccco3)cc(Cl)nc2c1Cl [Compound 114, 2-[(2R)-2-amino-3-(methylsulfanyl)propyl]-3,5-dichloro-N-[(furan-2-yl)methyl]thieno[3,2-b]pyridin-7-amine]
EC2x for IKBKAP protein expression (concentration producing two times the amount of IKBKAP protein vs DMSO vehicle control): ***** (≤0.005 μM is indicated by five stars (*****)) | MFI (maximum fold increase in IKBKAP protein abundance relative to the vehicle control): ***** (>4.9 is indicated by five stars (*****))

Cc1c(C[C@@H](N)C(=O)O)sc2c(NCc3ccco3)cc(Cl)nc12 [Compound 115, 3-(5-chloro-7-{[(furan-2-yl)methyl]amino}-3-methylthieno[3,2-b]pyridin-2-yl)-D-alanine]
EC2x for IKBKAP protein expression (concentration producing two times the amount of IKBKAP protein vs DMSO vehicle control): ***** (≤0.005 μM is indicated by five stars (*****)) | MFI (maximum fold increase in IKBKAP protein abundance relative to the vehicle control): ***** (>4.9 is indicated by five stars (*****))

Cc1c(C[C@@H](N)C(=O)N(C)C)sc2c(NCc3ccco3)cc(Cl)nc12 [Compound 116, 3-(5-chloro-7-{[(furan-2-yl)methyl]amino}-3-methylthieno[3,2-b]pyridin-2-yl)-N,N-dimethyl-D-alaninamide]
EC2x for IKBKAP protein expression (concentration producing two times the amount of IKBKAP protein vs DMSO vehicle control): **** (between >0.005 μM and ≤0.02 μM is indicated by four stars (****)) | MFI (maximum fold increase in IKBKAP protein abundance relative to the vehicle control): ***** (>4.9 is indicated by five stars (*****))

CS(=O)(=O)C[C@H](N)Cc1sc2c(NCc3ccco3)cc(Cl)nc2c1Br [Compound 117, 2-[(2R)-2-amino-3-(methanesulfonyl)propyl]-3-bromo-5-chloro-N-[(furan-2-yl)methyl]thieno[3,2-b]pyridin-7-amine]
EC2x for IKBKAP protein expression (concentration producing two times the amount of IKBKAP protein vs DMSO vehicle control): **** (between >0.005 μM and ≤0.02 μM is indicated by four stars (****)) | MFI (maximum fold increase in IKBKAP protein abundance relative to the vehicle control): ***** (>4.9 is indicated by five stars (*****))

CSC[C@H](N)Cc1sc2c(NCc3ccco3)cc(Cl)nc2c1Br [Compound 118, 2-[(2R)-2-amino-3-(methylsulfanyl)propyl]-3-bromo-5-chloro-N-[(furan-2-yl)methyl]thieno[3,2-b]pyridin-7-amine]
EC2x for IKBKAP protein expression (concentration producing two times the amount of IKBKAP protein vs DMSO vehicle control): ***** (≤0.005 μM is indicated by five stars (*****)) | MFI (maximum fold increase in IKBKAP protein abundance relative to the vehicle control): ***** (>4.9 is indicated by five stars (*****))

C=C[C@H](N)Cc1cc2nc(Cl)cc(NCc3ccco3)c2s1 [Compound 119, 2-[(2R)-2-aminobut-3-en-1-yl]-5-chloro-N-[(furan-2-yl)methyl]thieno[3,2-b]pyridin-7-amine]
EC2x for IKBKAP protein expression (concentration producing two times the amount of IKBKAP protein vs DMSO vehicle control): **** (between >0.005 μM and ≤0.02 μM is indicated by four stars (****)) | MFI (maximum fold increase in IKBKAP protein abundance relative to the vehicle control): **** (between >3.9 and ≤4.9 is indicated by four stars (****))

N[C@H](Cc1sc2c(NCc3ccco3)cc(Cl)nc2c1Cl)C(=O)Nc1ccccc1F [Compound 120, 3-(3,5-dichloro-7-{[(furan-2-yl)methyl]amino}thieno[3,2-b]pyridin-2-yl)-N-(2-fluorophenyl)-D-alaninamide]
EC2x for IKBKAP protein expression (concentration producing two times the amount of IKBKAP protein vs DMSO vehicle control): **** (between >0.005 μM and ≤0.02 μM is indicated by four stars (****)) | MFI (maximum fold increase in IKBKAP protein abundance relative to the vehicle control): **** (between >3.9 and ≤4.9 is indicated by four stars (****))

N[C@H](Cc1sc2c(NCc3ccco3)cc(Cl)nc2c1Cl)C(=O)O [Compound 121, 3-(3,5-dichloro-7-{[(furan-2-yl)methyl]amino}thieno[3,2-b]pyridin-2-yl)-D-alanine]
EC2x for IKBKAP protein expression (concentration producing two times the amount of IKBKAP protein vs DMSO vehicle control): **** (between >0.005 μM and ≤0.02 μM is indicated by four stars (****)) | MFI (maximum fold increase in IKBKAP protein abundance relative to the vehicle control): **** (between >3.9 and ≤4.9 is indicated by four stars (****))

N[C@H](Cc1sc2c(NCc3ccco3)cc(Cl)nc2c1Cl)C(=O)Nc1ccccc1 [Compound 122, 3-(3,5-dichloro-7-{[(furan-2-yl)methyl]amino}thieno[3,2-b]pyridin-2-yl)-N-phenyl-D-alaninamide]
EC2x for IKBKAP protein expression (concentration producing two times the amount of IKBKAP protein vs DMSO vehicle control): **** (between >0.005 μM and ≤0.02 μM is indicated by four stars (****)) | MFI (maximum fold increase in IKBKAP protein abundance relative to the vehicle control): ***** (>4.9 is indicated by five stars (*****))

C#C[C@H](N)Cc1sc2c(NCc3ccco3)cc(Cl)nc2c1C [Compound 123, 2-[(2R)-2-aminobut-3-yn-1-yl]-3-methyl-5-chloro-N-[(furan-2-yl)methyl]thieno[3,2-b]pyridin-7-amine]
EC2x for IKBKAP protein expression (concentration producing two times the amount of IKBKAP protein vs DMSO vehicle control): ***** (≤0.005 μM is indicated by five stars (*****)) | MFI (maximum fold increase in IKBKAP protein abundance relative to the vehicle control): ***** (>4.9 is indicated by five stars (*****))

N[C@H](Cc1sc2c(NCc3ccco3)cc(Cl)nc2c1Cl)C(=O)Nc1ccccc1F [Compound 124, 3-(3,5-dichloro-7-{[(furan-2-yl)methyl]amino}thieno[3,2-b]pyridin-2-yl)-N-(2-fluorophenyl)-D-alaninamide]
EC2x for IKBKAP protein expression (concentration producing two times the amount of IKBKAP protein vs DMSO vehicle control): **** (between >0.005 μM and ≤0.02 μM is indicated by four stars (****)) | MFI (maximum fold increase in IKBKAP protein abundance relative to the vehicle control): ***** (>4.9 is indicated by five stars (*****))

C[C@H](F)[C@H](N)Cc1sc2c(NCc3nccs3)cc(Cl)nc2c1Br [Compound 125, 2-[(2R,3S)-2-amino-3-fluorobutyl]-3-bromo-5-chloro-N-[(1,3-thiazol-2-yl)methyl]thieno[3,2-b]pyridin-7-amine]
EC2x for IKBKAP protein expression (concentration producing two times the amount of IKBKAP protein vs DMSO vehicle control): ***** (≤0.005 μM is indicated by five stars (*****)) | MFI (maximum fold increase in IKBKAP protein abundance relative to the vehicle control): ***** (>4.9 is indicated by five stars (*****))
